{"source": "patent US10364263B2", "about": "“Cyclic phosphates and cyclic phosphoramidates for the treatment of neurologic disorders” (Retrophin, Inc., priority 2015, dated 2019)"}
{"tested_on": "PANK2 silenced human neuroblastoma IMR32 cells (PANK2−/−)", "assay": "Coenzyme A assay in PANK2 silenced cells (LC-MS quantification of free CoA)", "assay_type": "cell-based", "settings": "compound added twice (24 h + 24 h), relative to 0.1% DMSO controls", "description": "A human neuroblastoma IMR32 cell line (ATCC) with stably PANK2 silencing was obtained by lentiviral-delivered small hairpin RNA and cultured in MEM (Invitrogen) supplemented with 10% fetal bovine serum, 2 mM glutamine, 1% penicillin-streptomycin, 1 mM sodium pyruvate, 1 mM non essential amino acids and 1.5 g/l sodium bicarbonate.\nFor lentiviral shRNA expression, Human Emryonic Kidney HEK-293T cells (ATCC) were transfected with the appropriate pGFP-Lenti-shRNA constructs and packaging plasmids according to manufacturer's protocol (Origene Technologies, Inc.). Four different gene-specific shRNA expression vectors designed against multiple splice variants of PANK2 (Gene ID 80025) were used for transfection. A non-silencing shRNA construct (scrambled shRNA) and an empty vector expressing GFP alone were used as negative controls. The GFP tag subcloned into the lentiviral vectors was used to monitor the transfection efficiency.\nIMR32 cells were plated on 150 cm dishes 48 h before transduction with lentiviral particles.\nThree days after transduction medium was removed and replaced with fresh medium containing […] puromycin. Medium was replaced every 48 h. Levels of PANK2 expression on selected clones was assessed by Western Blot analysis.\nTo quantify CoA, PANK2^−/− IMR32 cells were plated on 12-well culture plates (Corning) at a density of 0.2×10^6 cells per well. After 72 h, compounds were freshly dissolved in DMSO and added to the culture medium to yield a final solvent concentration of 0.1% (v/v). Controls with medium containing 0.1% DMSO without test compounds were also included in each plate. Compound treated cells were incubated for 24 h at 37° C. Treatment was repeated after 24 h with newly dissolved compound and cells were further incubated at 37° C. for additional 24 h. Before LC-MS analysis of CoA levels, cells were harvested, counted, and collected in a 15 ml falcon tube and centrifuged at 200×g for 5 min at 4° C. Supernatant was removed and cell pellet was washed in 10 ml of ice-cold PBS. To further confirm that the numbers of cells in each sample were equivalent, an equal fraction of pellet was collected from each sample and subjected to protein determination analysis. After centrifugation and supernatant removal, the cell pellet was rapidly frozen in Liquid Nitrogen and stored at −80° C. until analysis.\nIntracellular CoA levels were calculated considering an intracellular volume of 1 million cells=2 μl.\nThe 1×10^6 cellular pellet was extracted with 120 μl of aqueous 20% TFA. This solution was stirred for 2 min, sonicated in ultrasonic bath for 2 min, then stirred again for 1 min, and centrifuged for 15 min at 14000 g and at 4° C.\n100 μL samples of supernatant were dried under N2 at 20° C. in the dark.\nSamples were re-dissolved in 100 μl of 10 mM NH4^+ AcO^− buffer pH 5.1+IS (Dextrorphan 50 ng/ml), stirred for 2 min, sonicated in ultrasonic bath for 1 min, then stirred again for 1 min, and injected into LC-MS.\nLC-MS/MS was performed using an Agilent HPLC (1100 Series, USA). The LC system was interfaced with an API-4000 Q-Trap triple quadrupole mass spectrometer (AB Sciex, Toronto, Canada) equipped with a TurbolonSpray ionization source operating in positive ion mode. Analyst™ software version 1.6 (AB Sciex, Toronto, Canada) was used for data acquisition and processing. CoA was separated using a Luna C18 column (2.0×50 mm; 5 μm particle size), column at 25° C. and flow rate of 0.2 ml/min. Injection volume was 15 μl. The mobile phases consisted of water containing 10 mM ammonium acetate pH 7 (mobile phase A) and MeCN-2-propanol 9:1 (mobile phase B). Elution was performed using a gradient starting at 2% B, holding at 2% B until 0.1 min, increasing to 98% B at 3.2 min, holding at 98% B until 4.5 min, returning to 2% B at 4.6 min and holding at 2% B until 7.5 min. Precursor ions and MRM transitions used were: CoA m/z 768.1→261.6 and 768.1→136.1. […]", "units": {"PANK2−/− CoA (Fold Increase): fold increase in Coenzyme A (CoA) levels relative to controls": "Fold Increase"}}
{"smiles": "CC(C)(C)C(=O)OCO[P@@]1(=O)OCC(C)(C)[C@H](C(=O)NCCC(=O)OCCC#N)O1", "note": "(single isomer, unassigned) [Compound No. 77]", "PANK2−/− CoA (Fold Increase): fold increase in Coenzyme A (CoA) levels relative to controls": 93.86}
{"smiles": "COC(=O)CCNC(=O)[C@@H]1OP(=O)(OCOC(=O)[C@H]2COC(=O)N2C(=O)OC(C)(C)C)OCC1(C)C", "note": "(stereo partly drawn) [2-196, 3-(tert-butyl) 4-((((4R)-4-((3-methoxy-3-oxopropyl)carbamoyl)-5,5-dimethyl-2-oxido-1,3,2-dioxaphosphinan-2-yl)oxy)methyl) (4R)-2-oxooxazolidine-3,4-dicarboxylate]", "PANK2−/− CoA (Fold Increase): fold increase in Coenzyme A (CoA) levels relative to controls": 1.97}
{"smiles": "COC(=O)CCNC(=O)[C@@H]1O[P@@](=O)(OCOC(=O)c2ccnn2C)OCC1(C)C", "note": "[2-184, (((2S,4R)-4-((3-methoxy-3-oxopropyl)carbamoyl)-5,5-dimethyl-2-oxido-1,3,2-dioxaphosphinan-2-yl)oxy)methyl 1-methyl-1H-pyrazole-5-carboxylate]", "PANK2−/− CoA (Fold Increase): fold increase in Coenzyme A (CoA) levels relative to controls": 21.67}
{"smiles": "COC(=O)CCNC(=O)[C@@H]1OP(=O)(OCOC(=O)c2cc(C)nn2C)OCC1(C)C", "note": "(stereo partly drawn) [2-145, (((4R)-4-((3-methoxy-3-oxopropyl)carbamoyl)-5,5-dimethyl-2-oxido-1,3,2-dioxaphosphinan-2-yl)oxy)methyl 1,3-dimethyl-1H-pyrazole-5-carboxylate]", "PANK2−/− CoA (Fold Increase): fold increase in Coenzyme A (CoA) levels relative to controls": 42.44}
{"smiles": "COC(=O)CCNC(=O)[C@@H]1O[P@](=O)(OCOC(=O)c2scnc2C)OCC1(C)C", "note": "(single isomer, unassigned) [2-150]", "PANK2−/− CoA (Fold Increase): fold increase in Coenzyme A (CoA) levels relative to controls": 43.4}
{"smiles": "COC(=O)CCNC(=O)[C@@H]1OP(=O)(N[C@@H](Cc2ccccc2)C(=O)OC)OCC1(C)C", "note": "(stereo partly drawn) [compound 9, methyl ((4R)-4-((3-methoxy-3-oxopropyl)carbamoyl)-5,5-dimethyl-2-oxido-1,3,2-dioxaphosphinan-2-yl)-L-phenylalaninate]", "PANK2−/− CoA (Fold Increase): fold increase in Coenzyme A (CoA) levels relative to controls": 1.83}
{"smiles": "CCOC(=O)[C@H](CC(C)C)NP1(=O)OCC(C)(C)[C@H](C(=O)NCCC(=O)OC)O1", "note": "(stereo partly drawn) [compound 8, ethyl ((4R)-4-((3-methoxy-3-oxopropyl)carbamoyl)-5,5-dimethyl-2-oxido-3,3,2-dioxaphosphinan-2-yl)-L-leucinate]", "PANK2−/− CoA (Fold Increase): fold increase in Coenzyme A (CoA) levels relative to controls": 0.69}
{"smiles": "CC(C)OC(=O)CCNC(=O)[C@@H]1OP(=O)(O)OCC1(C)C", "note": "[2-110, isopropyl 3-((4R)-2-hydroxy-5,5-dimethyl-2-oxido-1,3,2-dioxaphosphinane-4-carboxamido)propanoate]", "PANK2−/− CoA (Fold Increase): fold increase in Coenzyme A (CoA) levels relative to controls": 2.17}
{"smiles": "COC(=O)CCNC(=O)[C@@H]1O[P@@](=O)(OCOC(=O)c2scnc2C(C)C)OCC1(C)C", "note": "[2-187, (((2S,4R)-4-((3-methoxy-3-oxopropyl)carbamoyl)-5,5-dimethyl-2-oxido-1,3,2-dioxaphosphinan-2-yl)oxy)methyl 4-isopropylthiazole-5-carboxylate]", "PANK2−/− CoA (Fold Increase): fold increase in Coenzyme A (CoA) levels relative to controls": 112.41}
{"smiles": "COC(=O)CCNC(=O)[C@@H]1OP(=O)(OCOC(=O)c2scnc2C(C)(C)C)OCC1(C)C", "note": "(stereo partly drawn) [2-173, (((4R)-4-((3-methoxy-3-oxopropyl)carbamoyl)-5,5-dimethyl-2-oxido-1,3,2-dioxaphosphinan-2-yl)oxy)methyl 4-(tert-butyl)thiazole-5-carboxylate]", "PANK2−/− CoA (Fold Increase): fold increase in Coenzyme A (CoA) levels relative to controls": 2.57}
{"smiles": "COC(=O)CCNC(=O)[C@@H]1OP(=O)(OCOC(=O)c2ocnc2C)OCC1(C)C", "note": "(stereo partly drawn) [2-147, (((4R)-4-((3-methoxy-3-oxopropyl)carbamoyl)-5,5-dimethyl-2-oxido-1,3,2-dioxaphosphinan-2-yl)oxy)methyl 4-methyloxazole-5-carboxylate]", "PANK2−/− CoA (Fold Increase): fold increase in Coenzyme A (CoA) levels relative to controls": 39.19}
{"smiles": "COC(=O)CCNC(=O)[C@@H]1O[P@](=O)(OCOC(=O)c2scnc2C(C)C)OCC1(C)C", "note": "[2-188, (((2R,4R)-4-((3-methoxy-3-oxopropyl)carbamoyl)-5,5-dimethyl-2-oxido-1,3,2-dioxaphosphinan-2-yl)oxy)methyl 4-isopropylthiazole-5-carboxylate]", "PANK2−/− CoA (Fold Increase): fold increase in Coenzyme A (CoA) levels relative to controls": 131.48}
{"smiles": "COC(=O)CCNC(=O)[C@@H]1O[P@@](=O)(Oc2ccc(C#N)cc2)OCC1(C)C", "note": "[2-116, methyl 3-((2S,4R)-2-(1-cyanophenoxy)-5,5-dimethyl-2-oxido-1,3,2-dioxaphosphinane-4-carboxamido)propanoate]", "PANK2−/− CoA (Fold Increase): fold increase in Coenzyme A (CoA) levels relative to controls": 0.95}
{"smiles": "COC(=O)CCNC(=O)[C@@H]1O[P@@](=O)(N2CCS(=O)(=O)CC2)OCC1(C)C", "note": "[compound 137, methyl 3-((2R,4R)-2-(1,1-dioxidothiomorpholino)-5,5-dimethyl-2-oxido-1,3,2-dioxaphosphinane-4-carboxamido) propanoate]", "PANK2−/− CoA (Fold Increase): fold increase in Coenzyme A (CoA) levels relative to controls": 1.76}
{"smiles": "COC(=O)CCNC(=O)[C@@H]1O[P@@](=O)(OCOC(=O)NC(C)(C)COC(=O)[C@@H](NC(=O)OCc2ccccc2)C(C)C)OCC1(C)C", "note": "[2-172, 2-((((((2S,4R)-4-((3-methoxy-3-oxopropyl)carbamoyl)-5,5-dimethyl-2-oxido-1,3,2-dioxaphosphinan-2-yl)oxy)methoxy)carbonyl)amino)-2-methylpropyl ((benzyloxy)carbonyl)-L-valinate]", "PANK2−/− CoA (Fold Increase): fold increase in Coenzyme A (CoA) levels relative to controls": 1.95}
{"smiles": "COC(=O)CCNC(=O)[C@@H]1O[P@@](=O)(OCOC(=O)c2cc(C(C)(C)C)nn2C)OCC1(C)C", "note": "[2-169, (((2S,4R)-4-((3-methoxy-3-oxopropyl)carbamoyl)-5,5-dimethyl-2-oxido-1,3,2-dioxaphosphinan-2-yl)oxy)methyl 3-(tert-butyl)-1-methyl-1H-pyrazole-5-carboxylate]", "PANK2−/− CoA (Fold Increase): fold increase in Coenzyme A (CoA) levels relative to controls": 20.26}
{"smiles": "COC(=O)CCNC(=O)[C@@H]1O[P@@](=O)(N2CCOCC2)OCC1(C)C", "note": "[compound 136, methyl 3-((2R,4R)-5,5-dimethyl-2-morpholino-2-oxido-1,3,2-dioxaphosphinane-4-carboxamido)propanoate]", "PANK2−/− CoA (Fold Increase): fold increase in Coenzyme A (CoA) levels relative to controls": 1.93}
{"smiles": "COC(=O)CCNC(=O)[C@@H]1O[P@](=O)(OCOC(=O)c2cc(C(C)(C)C)nn2C)OCC1(C)C", "note": "[2-170, (((2R,4R)-4-((3-methoxy-3-oxopropyl)carbamoyl)-5,5-dimethyl-2-oxido-1,3,2-dioxaphosphinan-2-yl)oxy)methyl 3-(tert-butyl)-1-methyl-1H-pyrazole-5-carboxylate]", "PANK2−/− CoA (Fold Increase): fold increase in Coenzyme A (CoA) levels relative to controls": 82.88}
{"smiles": "COC(=O)CCNC(=O)[C@@H]1OP(=O)(OCOC(=O)N[C@@H](CSC(=O)C(C)(C)C)C(=O)OCC(=O)c2ccccc2)OCC1(C)C", "note": "(stereo partly drawn) [2-202, 2-oxo-2-phenylethyl N-(((((4R)-4-((3-methoxy-3-oxopropyl)carbamoyl)-5,5-dimethyl-2-oxido-1,3,2-dioxaphosphinan-2-yl)oxy)methoxy)carbonyl)-S-pivaloyl-L-cysteinate]", "PANK2−/− CoA (Fold Increase): fold increase in Coenzyme A (CoA) levels relative to controls": 2.62}
